The test system of data set [1] is rats. The data set can be described thus: Inhibition of apomorphine-induced stereotypical behaviour in rats. To be noted: for ED50: Rattus norvegicus, sc, read-out: Inhibition of apomorphine-induced stereotypical behaviour in rats 50% inhibition/ED50 s.c. at:
The class given is in vivo, rat. An excerpt: (§1) Additionally, in the binding experiment this active compound displaces tritiated ifenprodil in the forebrain of rats from its binding site (for method see Schoemaker et al., European J. Pharmacol. 176 (1990), 249-250), which represents a receptor at the N-methyl-D-aspartate (NMDA) receptor/ion channel complex as a subtype of the glutamate receptors.
2. Inhibition of apomorphine-induced stereotypical behaviour in rats (Puech et al., 1978):
Stereotypical behaviour (unmotivated sniffling, licking, chewing, rhythmic movements with the forepaws) was induced by administration of 0.5 mg/kg s.c. of apomorphine. The intensity of the ensuing stereotypical behaviour was assessed every 5 minutes for each rat for a period of 30 minutes using a rating system (0-3). The total score was used as a measure of the occurence of the stereotypical behaviour.

The target in data set [2] is T1, polyamine binding site (ifenprodil binding site at the NMDA receptor/ion channel complex) (Rattus norvegicus, UniProt P35439+Q00960).
T1 construct: Homogenates of rat forebrain were centrifuged repeatedly; from tissue; host or cells: rat forebrain membranes
The data set can be described thus: Ifenprodil binding ([3H]-ifenprodil displacement, rat forebrain membranes). As to the method: as §1
1. Ifenprodil binding (Schoemaker et al., 1990)
Homogenates of rat forebrain were centrifuged repeatedly. The last membrane […] (10 mg/ml) was used to determine the specific binding in the presence of 1.15 nM [^3H]-ifenprodil in 5 ml of buffer solution at pH 7.4. The unspecific binding was determined in the presence of 100 μM of ifenprodil.

Data set [3] relates to rats. The data set can be described thus: Catalepsy induction in rats. The class given is in vivo, rat. As to the method:
as §1
3. Catalepsy induction in rats (Stanley and Glick, 1976):
The occurrence of catalepsy in rats was measured by placing a hindpaw on a 3 cm high block and scoring every 5 minutes for a period of 30 minutes the time for which the rat stayed in this unnatural position using a rating system (score 0-3). The total score was used as a measure of the intensity of the catalepsy.

For data set [4], the system named is mice. The data set is described as follows: Apomorphine-induced climbing behaviour in mice. Type of data set: in vivo, mouse.
Data set [5] has as its system rats. The data set can be described thus: Conditioned avoiding reaction in rats. Type of data set: in vivo, rat.
Data set [6] has as its system rats. The data set is described as follows: Ultrasound vocalization after electric stimulation in rats. The class given is in vivo, rat. The note with it: proof of the anxiolytic action.
Data set [7] relates to rats. The data set is described as follows: Spontaneous behaviour of rats (Irwin). The class given is in vivo, rat.
Data set [8] relates to mice. The data set can be described thus: Spontaneous behaviour of mice (Irwin). Type of data set: in vivo, mouse.
Where [9] appears, read: apomorphine 0.5 mg/kg s.c., methanesulfonate salts.
[10] abbreviates: rat forebrain homogenate, 1.15 nM [3H]-ifenprodil, pH 7.4, methanesulfonate salts, read-out: Ifenprodil binding in vitro 50% displacement/IC50 at:

pIC50: −log10 of the molar value. Where two headings read alike, the source gives them in different places. Bounds are passed on as bounds.

T1 sequence (Q00960 27-1482, other chains not shown): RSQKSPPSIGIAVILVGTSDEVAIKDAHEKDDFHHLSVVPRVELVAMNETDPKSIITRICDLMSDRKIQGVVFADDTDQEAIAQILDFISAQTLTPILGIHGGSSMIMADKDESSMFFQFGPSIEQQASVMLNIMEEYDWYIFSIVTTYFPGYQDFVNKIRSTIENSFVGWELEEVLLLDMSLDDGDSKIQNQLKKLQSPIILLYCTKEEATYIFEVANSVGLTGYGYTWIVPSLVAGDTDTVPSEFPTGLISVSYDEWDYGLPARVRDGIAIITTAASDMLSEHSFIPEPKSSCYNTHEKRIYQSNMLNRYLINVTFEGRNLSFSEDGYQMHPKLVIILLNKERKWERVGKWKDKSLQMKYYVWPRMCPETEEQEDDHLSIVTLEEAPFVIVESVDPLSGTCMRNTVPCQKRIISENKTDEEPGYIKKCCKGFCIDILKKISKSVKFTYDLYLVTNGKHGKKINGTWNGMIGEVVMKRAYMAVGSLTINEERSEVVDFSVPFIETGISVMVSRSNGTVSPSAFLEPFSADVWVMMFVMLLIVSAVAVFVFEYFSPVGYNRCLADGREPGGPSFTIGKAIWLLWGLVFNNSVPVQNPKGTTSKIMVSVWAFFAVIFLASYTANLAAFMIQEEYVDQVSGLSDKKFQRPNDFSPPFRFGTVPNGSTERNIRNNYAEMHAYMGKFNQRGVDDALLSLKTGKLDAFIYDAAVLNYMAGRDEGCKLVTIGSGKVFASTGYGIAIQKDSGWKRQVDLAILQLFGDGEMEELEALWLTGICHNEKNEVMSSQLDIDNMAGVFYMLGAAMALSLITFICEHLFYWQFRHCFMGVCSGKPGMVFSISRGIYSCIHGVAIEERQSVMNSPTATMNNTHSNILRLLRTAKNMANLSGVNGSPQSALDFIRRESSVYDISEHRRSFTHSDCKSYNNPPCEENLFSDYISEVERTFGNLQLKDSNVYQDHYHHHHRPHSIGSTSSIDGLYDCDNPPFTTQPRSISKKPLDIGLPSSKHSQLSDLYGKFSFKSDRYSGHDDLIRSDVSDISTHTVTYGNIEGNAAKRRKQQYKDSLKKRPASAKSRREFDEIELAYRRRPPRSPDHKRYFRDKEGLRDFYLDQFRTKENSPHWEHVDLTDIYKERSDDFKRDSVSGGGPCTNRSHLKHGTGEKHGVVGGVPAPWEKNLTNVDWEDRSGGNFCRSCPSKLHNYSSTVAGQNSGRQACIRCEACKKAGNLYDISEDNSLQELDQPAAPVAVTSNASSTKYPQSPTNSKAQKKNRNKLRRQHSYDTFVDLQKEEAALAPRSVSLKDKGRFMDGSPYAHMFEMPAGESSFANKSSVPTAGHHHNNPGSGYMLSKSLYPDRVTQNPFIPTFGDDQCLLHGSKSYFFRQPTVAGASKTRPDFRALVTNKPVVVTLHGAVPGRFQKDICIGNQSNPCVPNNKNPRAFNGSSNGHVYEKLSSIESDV

For `Cc1ccc(N2C[C@H](CN3CCC(Cc4ccc(F)cc4)CC3)OC2=O)cc1` [R = CH3, reference compound], in data set [1] (setting [9]), the ED50 was greater than 10 mg/kg. Moreover, the pIC50 in data set [2] (setting [10]) is less than 6.00.

As to `O=C1O[C@@H](CN2CCC(Cc3ccc(F)cc3)CC2)CN1c1ccc(F)cc1` [R = F, reference compound], the ED50 in data set [1] (setting [9]) was greater than 10 mg/kg. Further, the pIC50 in data set [2] (setting [10]) is less than 6.00.

For the molecule `COc1ccc(N2C[C@H](CN3CCC(Cc4ccc(F)cc4)CC3)OC2=O)cc1` [R = OCH3, (5S)-(−)-5-[4-(4-fluorobenzyl)-1-piperidinylmethyl]-3-(4-methoxyphenyl)-oxazolidin-2-one, reference compound], in data set [1] (setting [9]), the ED50 was greater than 10 mg/kg. Also, the pIC50 in data set [2] (setting [10]) was less than 6.00.

For `O=C1O[C@@H](CN2CCC(Cc3ccc(F)cc3)CC2)CN1c1ccc(O)cc1` [R = OH, (5S)-(−)-5-[4-(4-fluorobenzyl)-1-piperidinylmethyl]-3-(4-hydroxyphenyl)oxazolidin-2-one], in data set [1] (s.c., apomorphine 0.5 mg/kg s.c., methanesulfonate salts), the “Inhibition of apomorphine-induced stereotypical behaviour in rats 50% inhibition/ED50 s.c. at:” value is on record as 2.8 mg/kg. The “Catalepsy induction Rat” value in data set [3] (30 mg/kg s.c., rat, methanesulfonate salt) is recorded as 0%. Also, in data set [3] (in vivo animal models), the “Catalepsy ED50” value is greater than 30 mg/kg. The pIC50 is 8.00 in data set [2] (in vitro, read-out: IC50 for the polyamine binding site) and 8.00 in data set [2] (setting [10]).

Turning to `O=C1OC(CN2CCC(Cc3ccc(F)cc3)CC2)CN1c1ccc(O)cc1` (stereo not shown) [formula I, 5-[4-(4-fluorobenzyl)piperidin-1-ylmethyl]-3-(4-hydroxy-phenyl) oxazolidin-2-one], in data set [4], the “apomorphine-induced climbing behaviour in mice” value is given as “inhibits”. Further, in data set [1], the “apomorphine-induced stereotypical behaviour in rats (in words)” value is on record as “inhibits”. In addition, the “conditioned avoiding reaction in rats” value in data set [5] was “inhibits”. Besides, the “occurrence of catalepsy (in words)” value in data set [3] (rat, in vivo) is listed as “without the occurrence of catalepsy”. Also, in data set [6], the “ultrasound vocalization after electric stimulation in rats” value is recorded as “inhibits”. Also, the “displacement of tritiated ifenprodil from its binding site” value in data set [2] (forebrain of rats) is reported as “displaces”. For the same molecule, the “effect on the spontaneous behaviour of rats” value in data set [7] is on record as “depressive effect”. Also, the “effect on the spontaneous behaviour of mice” value in data set [8] is recorded as “depressive effect”.

Values taken from patent US6413989B1, “Piperidinylmethyloxazolidinone derivative” (Merck Patent Gesellschaft mit beschrankter Haftung, priority 1997, dated 2002).
